Measured values taken from US20080063601A1, “Compositions and methods relating to polycystic kidney disease” (priority 2004, published 2008).

Columns and labels:
Assay type in all cases: cell-based
HeLa cells = experiment: HeLa cell viability by trypan blue dye exclusion
Procedure: Since extracellular calcium concentration can influence triptolide binding Applicant sought to determine if the presence of calcium influences the rate of triptolide-mediated apoptosis. To first establish the growth rate of HeLa in media±calcium, cell counts were performed over a 72 hour time course. Although calcium-free media caused cells to detach more easily, the overall growth rates were similar where cell doubling occurred every 24 hours on average (FIG. 5B). For triptolide experiments, cells were initially equilibrated in medium±calcium for 16 hours before the addition of 100 nM triptolide. Cell death was assessed by trypan blue dye exclusion at 24, 48, and 72 hours post drug treatment. In the presence of calcium-containing medium, triptolide induced at least 50% cell death by 24 hours with this trend continuing through later time points (FIG. 5C).
Applicant's results have implicated reversible binding of triptolide to a potential binding protein or complex that can be regulated by calcium. To understand if triptolide function is further separable between cell death and NFκB inhibition, Applicant examined the effect of concentration on these two endpoints. HeLa cells were cultured in the presence of 0, 10, 25, 50, or 100 nM of triptolide and separately assessed for cell death or the ability to suppress NFκB transactivation promoted by TNF-α. Following 24-48 hours of culture, viable cells were recovered and counted. Following 24 hours, triptolide concentrations from 25-100 nM caused greater than 50% of the cells to undergo cell death as assessed by detachment, clumping and the failure to exclude trypan blue dye. […] This is consistent with previous studies showing that low doses of triptolide cause cell cycle arrest rather than apoptosis (Kiviharju, et al., 2002, Clin Cancer Res 8, 2666-2674).
Based upon Applicant's studies examining the concentration dependent effect of triptolide on the two measured biological endpoints, cell death and transcriptional repression, Applicant wanted to determine how modulating triptolide's structure may also discriminate between the two pathways. For cell viability assays, HeLa cells were incubated with 0, 0.1, 1, or 10 μM of each analog or triptolide for 24 hours and then counted using trypan blue dye exclusion. […] NFκB transcriptional inhibition was measured using the κB-luciferase assay as previously described following 5 hours of incubation with each analog (0-10 μM) and TNF-α addition.
HeLa cells were incubated in DMEM or SMEM (Gibco) media+10% FBS and maintained at 37° C. in 5% CO2 for all experiments. HeLa cell viability was assessed by trypan blue dye exclusion, as well as by morphological examination (non-viable cells were rounded and detached from culture plate).

polycystin-2 [1] = target: T1, polycystin-2 (Mus musculus, UniProt O35245); experiment: Fluo-4 calcium imaging in murine kidney epithelial cells; conditions: Pkd1^−/− cells, 100 nM perfused
T1 construct: endogenous in cells; host or cells: Pkd1-/- (PN24) murine kidney proximal tubule epithelial cells
T1 sequence (O35245 1-966): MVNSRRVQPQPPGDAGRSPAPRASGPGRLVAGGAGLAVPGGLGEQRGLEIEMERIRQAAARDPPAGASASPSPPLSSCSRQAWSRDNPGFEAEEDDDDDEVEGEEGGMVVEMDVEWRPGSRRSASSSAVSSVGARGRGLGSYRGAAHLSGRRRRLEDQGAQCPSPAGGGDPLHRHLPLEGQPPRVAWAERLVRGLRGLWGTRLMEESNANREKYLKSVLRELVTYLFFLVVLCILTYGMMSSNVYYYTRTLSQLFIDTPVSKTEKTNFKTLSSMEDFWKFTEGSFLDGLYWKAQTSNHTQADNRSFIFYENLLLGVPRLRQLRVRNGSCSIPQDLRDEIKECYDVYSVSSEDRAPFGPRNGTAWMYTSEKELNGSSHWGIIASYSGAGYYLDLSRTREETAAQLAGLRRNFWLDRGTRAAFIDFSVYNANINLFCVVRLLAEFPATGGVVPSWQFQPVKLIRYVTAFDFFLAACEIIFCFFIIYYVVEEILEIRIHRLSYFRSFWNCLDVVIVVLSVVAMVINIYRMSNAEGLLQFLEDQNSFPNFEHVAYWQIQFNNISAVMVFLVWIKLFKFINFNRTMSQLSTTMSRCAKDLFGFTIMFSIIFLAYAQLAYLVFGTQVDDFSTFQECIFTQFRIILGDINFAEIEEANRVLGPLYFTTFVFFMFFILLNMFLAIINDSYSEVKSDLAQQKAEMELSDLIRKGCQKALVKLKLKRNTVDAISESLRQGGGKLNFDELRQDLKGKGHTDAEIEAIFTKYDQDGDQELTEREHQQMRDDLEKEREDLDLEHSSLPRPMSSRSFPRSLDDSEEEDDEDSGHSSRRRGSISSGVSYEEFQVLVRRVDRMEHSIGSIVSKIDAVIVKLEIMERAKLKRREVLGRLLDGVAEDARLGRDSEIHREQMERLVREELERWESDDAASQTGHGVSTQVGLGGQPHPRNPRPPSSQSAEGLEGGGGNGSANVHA
Procedure: (§1) Cells were plated on coverslips and loaded with Fluo-4 (Molecular Probes) diluted in DMSO/pluronic for 30 minutes prior to imaging. Cells were perfused with a calcium imaging buffer (HEPES, NaCl, KCl, MgSO4 and CaCl2) ±100 nM triptolide. All cell traces are indicative of individual cellular fluorescence and calcium release. Data is presented as change of fluorescence over baseline control (before triptolide addition).
(§2) Murine kidney epithelial cell lines with differing polycystin-1 or polycystin-2 expression were used to establish a cellular based mechanism for polycystin-2 mediated calcium release in response to triptolide. Because the biochemical purification analysis identified polycystin-2 as a putative triptolide binding protein, Applicant assessed whether the calcium release was dependent upon expression of polycystin-1. Epithelial cells derived from the proximal nephric tubules of Pkd1^−/− mice were first examined to determine if calcium release was observed when 100 nM of triptolide was perfused through the imaging chamber. […] To strengthen the evidence that polycystin-2 was necessary for calcium release elicited by triptolide addition, it was reconstituted by stable expression of Pkd2 into the background of Pkd2^−/− cells, which were assessed for sensitivity to triptolide.

polycystin-2 [2] = experiment: as above
Procedure: as §1, §2

## CC(C)[C@]12O[C@H]1[C@@H]1O[C@]13[C@]1(O[C@H]1C[C@H]1C4=C(CC[C@@]13C)C(=O)OC4)[C@@H]2O [triptolide]
HeLa cells
  minimal incubation time required for commitment to apoptosis: three to four hours
HeLa cells; 10 nM, 48 hours
  effect on cell proliferation and cell death: inhibited cell proliferation but did not induce cell death
HeLa cells; 0.1 μM, 24 hours
  cell death: 60%
HeLa cells; 0.1 μM, 24 hours, listed as Triptolide
  cell death: greater than 50%
HeLa cells; 100 nM, calcium free media, 72 hours
  cells died: 35%
HeLa cells; 100 nM, calcium-containing medium, by 24 hours
  cell death: at least 50%
HeLa cells; 25-100 nM, 24 hours
  cells undergoing cell death: greater than 50%
HeLa cells; 25-100 nM, 48 hours
  cells died: nearly all cells
polycystin-2 [1]
  calcium release (Fluo-4 fluorescence): clear rise in intracellular calcium levels
polycystin-2 [2]; Pkd2^−/− cells, 100 nM perfused
  calcium release (Fluo-4 fluorescence): no calcium release was detected
polycystin-2 [2]; Pkd2 re-expressed (Rex) in Pkd2^−/− background, 100 nM
  calcium release (Fluo-4 fluorescence): restored calcium release
